Key:
[1] = target: T1, recombinant human UGT1A10 (Homo sapiens, UniProt Q9HAW8); test: Glucuronidation by recombinant UGT1A10 (activity screen and steady-state kinetics); conditions: for glucuronidation activity (initial screen): 750 μM substrate, 90 min
T1 sequence (Q9HAW8 26-530): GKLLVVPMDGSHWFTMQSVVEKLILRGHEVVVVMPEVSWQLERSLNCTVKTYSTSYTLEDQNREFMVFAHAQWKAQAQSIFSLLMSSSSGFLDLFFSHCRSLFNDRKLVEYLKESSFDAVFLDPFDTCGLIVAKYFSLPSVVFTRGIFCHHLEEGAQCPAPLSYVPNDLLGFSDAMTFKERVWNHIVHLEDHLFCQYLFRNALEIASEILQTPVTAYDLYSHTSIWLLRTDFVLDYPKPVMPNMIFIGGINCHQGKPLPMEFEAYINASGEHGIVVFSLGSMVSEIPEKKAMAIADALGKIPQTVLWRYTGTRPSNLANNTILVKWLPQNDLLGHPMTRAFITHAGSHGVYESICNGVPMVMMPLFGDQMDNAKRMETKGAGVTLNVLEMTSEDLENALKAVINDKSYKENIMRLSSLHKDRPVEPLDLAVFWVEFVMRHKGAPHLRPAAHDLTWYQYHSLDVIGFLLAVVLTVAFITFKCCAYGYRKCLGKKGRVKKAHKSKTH

human liver microsomes = test: Glucuronidation by human liver microsomes (activity screen); conditions: human liver microsomes (HLM); 750 μM substrate, UDP-GlcUA 4 mM, 90 min
recombinant human UGT1A1 = target: T2, recombinant human UGT1A1 (Homo sapiens, UniProt P22309); test: Glucuronidation by recombinant UGT1A1 (activity screen and steady-state kinetics); conditions: UDP-GlcUA 4 mM
T2 sequence (P22309 26-533): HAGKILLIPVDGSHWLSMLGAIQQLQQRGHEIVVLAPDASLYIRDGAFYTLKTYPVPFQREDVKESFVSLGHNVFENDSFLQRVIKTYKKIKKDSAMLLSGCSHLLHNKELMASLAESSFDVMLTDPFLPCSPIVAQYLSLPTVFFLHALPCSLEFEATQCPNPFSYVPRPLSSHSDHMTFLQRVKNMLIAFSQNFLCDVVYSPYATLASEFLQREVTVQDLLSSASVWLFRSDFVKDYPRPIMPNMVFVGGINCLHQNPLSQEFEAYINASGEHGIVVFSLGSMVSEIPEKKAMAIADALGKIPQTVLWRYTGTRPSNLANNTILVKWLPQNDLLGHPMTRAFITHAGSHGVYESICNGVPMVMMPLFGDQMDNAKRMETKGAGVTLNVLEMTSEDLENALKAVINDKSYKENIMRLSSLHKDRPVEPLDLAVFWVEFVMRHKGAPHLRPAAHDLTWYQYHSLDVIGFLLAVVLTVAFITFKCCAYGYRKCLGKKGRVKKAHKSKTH

recombinant human UGT1A3 = target: T3, recombinant human UGT1A3 (Homo sapiens, UniProt P35503); test: Glucuronidation by recombinant UGT1A3 (activity screen and steady-state kinetics); conditions: UDP-GlcUA 4 mM
T3 sequence (P35503 29-534): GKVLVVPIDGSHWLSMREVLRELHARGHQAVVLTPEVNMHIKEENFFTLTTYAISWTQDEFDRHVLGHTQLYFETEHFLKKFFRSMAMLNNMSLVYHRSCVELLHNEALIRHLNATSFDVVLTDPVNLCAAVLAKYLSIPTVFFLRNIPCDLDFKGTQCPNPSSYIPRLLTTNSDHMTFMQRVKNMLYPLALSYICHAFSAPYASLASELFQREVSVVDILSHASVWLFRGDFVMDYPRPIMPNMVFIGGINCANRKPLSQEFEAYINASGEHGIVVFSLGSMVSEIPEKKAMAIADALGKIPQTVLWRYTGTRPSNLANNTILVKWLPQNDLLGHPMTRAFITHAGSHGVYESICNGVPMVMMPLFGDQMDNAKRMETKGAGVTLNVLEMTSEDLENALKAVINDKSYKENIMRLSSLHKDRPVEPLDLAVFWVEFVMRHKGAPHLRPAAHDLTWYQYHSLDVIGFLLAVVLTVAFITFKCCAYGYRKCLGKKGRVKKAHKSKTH

recombinant human UGT1A9 = target: T4, recombinant human UGT1A9 (Homo sapiens, UniProt O60656); test: Glucuronidation by recombinant UGT1A9 (activity screen and steady-state kinetics); conditions: UDP-GlcUA 4 mM
T4 sequence (O60656 26-530): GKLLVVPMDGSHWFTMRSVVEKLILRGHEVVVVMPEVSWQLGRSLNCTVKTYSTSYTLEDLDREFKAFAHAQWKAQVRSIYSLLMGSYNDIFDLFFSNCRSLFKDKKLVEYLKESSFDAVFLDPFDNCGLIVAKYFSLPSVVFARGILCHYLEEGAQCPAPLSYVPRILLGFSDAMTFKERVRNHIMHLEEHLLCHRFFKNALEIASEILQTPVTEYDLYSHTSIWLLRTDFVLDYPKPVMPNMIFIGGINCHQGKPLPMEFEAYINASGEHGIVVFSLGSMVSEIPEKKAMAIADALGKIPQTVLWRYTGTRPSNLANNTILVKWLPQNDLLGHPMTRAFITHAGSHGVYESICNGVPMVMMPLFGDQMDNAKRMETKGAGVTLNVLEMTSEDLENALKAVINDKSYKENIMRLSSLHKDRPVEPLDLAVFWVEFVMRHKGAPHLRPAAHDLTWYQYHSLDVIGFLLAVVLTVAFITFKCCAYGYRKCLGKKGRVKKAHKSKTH

[2] = substrate: CCCCCc1cc(O)c2c(c1)OC(C)(C)c1ccc(C)cc1-2; test: cells, lysate or membranes named; conditions: UDP-GlcUA 4 mM, 37° C., 30 min, TLC, pH 7.4
[3] = 5 μg membrane protein, 37° C., 30 min, TLC
[4] = 5 μg membrane protein, 37° C., 30 min, TLC, normalized
[5] = other: UGT1A7, 5 μg membrane protein
[6] = other: UGT1A10, 5 μg membrane protein
[7] = other: UGT1A9, 5 μg membrane protein
[8] = other: UGT1A8, 5 μg membrane protein

Molecule: CCCCCc1cc(O)c2c(c1)OC(C)(C)c1ccc(C)cc1-2 [CBN, cannabinol]
- glucuronidation activity (initial screen) ([1]; UDP-GlcUA 4 mM): glucuronidated at high levels
- effectiveness of conjugation relative to 11-OH-THC ([1]; CBN versus 11-OH-THC): 3 fold

Molecule: CCCCCc1cc(O)c2c(c1)OC(C)(C)[C@@H]1CCC(C(=O)O)=C[C@@H]21 [COOH-THC, (−)-11-nor-9-carboxy-Δ^9-THC]
- glucuronidation activity (initial screen) (human liver microsomes): significant amount of activity
- Km (recombinant human UGT1A1; [3]): 170 ± 37 µM
- Vmax (recombinant human UGT1A1; [4]): 0.22 ± 0.02 nmol/mg protein/min
- glucuronidation activity (initial screen) (recombinant human UGT1A1; 750 μM substrate, 90 min): significant amount of activity
- Km (recombinant human UGT1A3; [3]): 68 ± 17 µM
- Vmax (recombinant human UGT1A3; [4]): 0.68 ± 0.06 nmol/mg protein/min
- glucuronidation activity (initial screen) (recombinant human UGT1A3; 750 μM substrate, 90 min): highest activity

Molecule: (±)-11-hydroxy-Δ^9-THC [11-OH-THC]
- Km ([1]; 5 μg membrane protein, UDP-GlcUA 4 mM, 37° C., 30 min, TLC): 72 ± 19 µM
- Vmax ([1]; 5 μg membrane protein, UDP-GlcUA 4 mM, 37° C., 30 min, TLC, normalized): 0.33 ± 0.03 nmol/mg protein/min
- glucuronidation activity (initial screen) ([1]; UDP-GlcUA 4 mM): specifically glucuronidated
- Km (recombinant human UGT1A9; [3]): 73 ± 1.9 µM
- Vmax (recombinant human UGT1A9; [4]): 0.14 ± 0.01 nmol/mg protein/min
- glucuronidation activity (initial screen) (recombinant human UGT1A9; 750 μM substrate, 90 min): specifically glucuronidated

B1: recombinant human UGT1A7 (Homo sapiens) (protein)
chain: GKLLVVPMDGSHWFTMQSVVEKLILRGHEVVVVMPEVSWQLGRSLNCTVKTYSTSYTLEDQDREFMVFADARWTAPLRSAFSLLTSSSNGIFDLFFSNCRSLFNDRKLVEYLKESCFDAVFLDPFDACGLIVAKYFSLPSVVFARGIFCHYLEEGAQCPAPLSYVPRLLLGFSDAMTFKERVWNHIMHLEEHLFCPYFFKNVLEIASEILQTPVTAYDLYSHTSIWLLRTDFVLEYPKPVMPNMIFIGGINCHQGKPVPMEFEAYINASGEHGIVVFSLGSMVSEIPEKKAMAIADALGKIPQTVLWRYTGTRPSNLANNTILVKWLPQNDLLGHPMTRAFITHAGSHGVYESICNGVPMVMMPLFGDQMDNAKRMETKGAGVTLNVLEMTSEDLENALKAVINDKSYKENIMRLSSLHKDRPVEPLDLAVFWVEFVMRHKGAPHLRPAAHDLTWYQYHSLDVIGFLLAVVLTVAFITFKCCAYGYRKCLGKKGRVKKAHKSKTH
- Km [2, 5]: 19 ± 3.9 µM
- Vmax [2, 5]: 0.00024 µmol/min/mg

B2: recombinant human UGT1A10 (Homo sapiens) (protein)
chain: GKLLVVPMDGSHWFTMQSVVEKLILRGHEVVVVMPEVSWQLERSLNCTVKTYSTSYTLEDQNREFMVFAHAQWKAQAQSIFSLLMSSSSGFLDLFFSHCRSLFNDRKLVEYLKESSFDAVFLDPFDTCGLIVAKYFSLPSVVFTRGIFCHHLEEGAQCPAPLSYVPNDLLGFSDAMTFKERVWNHIVHLEDHLFCQYLFRNALEIASEILQTPVTAYDLYSHTSIWLLRTDFVLDYPKPVMPNMIFIGGINCHQGKPLPMEFEAYINASGEHGIVVFSLGSMVSEIPEKKAMAIADALGKIPQTVLWRYTGTRPSNLANNTILVKWLPQNDLLGHPMTRAFITHAGSHGVYESICNGVPMVMMPLFGDQMDNAKRMETKGAGVTLNVLEMTSEDLENALKAVINDKSYKENIMRLSSLHKDRPVEPLDLAVFWVEFVMRHKGAPHLRPAAHDLTWYQYHSLDVIGFLLAVVLTVAFITFKCCAYGYRKCLGKKGRVKKAHKSKTH
- Km [2, 6]: 59 ± 10 µM
- Vmax [2, 6]: 0.00091 µmol/min/mg

B3: recombinant human UGT1A9 (Homo sapiens) (protein)
chain: GKLLVVPMDGSHWFTMRSVVEKLILRGHEVVVVMPEVSWQLGRSLNCTVKTYSTSYTLEDLDREFKAFAHAQWKAQVRSIYSLLMGSYNDIFDLFFSNCRSLFKDKKLVEYLKESSFDAVFLDPFDNCGLIVAKYFSLPSVVFARGILCHYLEEGAQCPAPLSYVPRILLGFSDAMTFKERVRNHIMHLEEHLLCHRFFKNALEIASEILQTPVTEYDLYSHTSIWLLRTDFVLDYPKPVMPNMIFIGGINCHQGKPLPMEFEAYINASGEHGIVVFSLGSMVSEIPEKKAMAIADALGKIPQTVLWRYTGTRPSNLANNTILVKWLPQNDLLGHPMTRAFITHAGSHGVYESICNGVPMVMMPLFGDQMDNAKRMETKGAGVTLNVLEMTSEDLENALKAVINDKSYKENIMRLSSLHKDRPVEPLDLAVFWVEFVMRHKGAPHLRPAAHDLTWYQYHSLDVIGFLLAVVLTVAFITFKCCAYGYRKCLGKKGRVKKAHKSKTH
- Km [2, 7]: 3.4 ± 1.3 µM
- Vmax [2, 7]: 0.0001 µmol/min/mg

B4: recombinant human UGT1A8 (Homo sapiens) (protein)
chain: GKLLVVPMDGSHWFTMQSVVEKLILRGHEVVVVMPEVSWQLGKSLNCTVKTYSTSYTLEDLDREFMDFADAQWKAQVRSLFSLFLSSSNGFFNLFFSHCRSLFNDRKLVEYLKESSFDAVFLDPFDACGLIVAKYFSLPSVVFARGIACHYLEEGAQCPAPLSYVPRILLGFSDAMTFKERVRNHIMHLEEHLFCQYFSKNALEIASEILQTPVTAYDLYSHTSIWLLRTDFVLDYPKPVMPNMIFIGGINCHQGKPLPMEFEAYINASGEHGIVVFSLGSMVSEIPEKKAMAIADALGKIPQTVLWRYTGTRPSNLANNTILVKWLPQNDLLGHPMTRAFITHAGSHGVYESICNGVPMVMMPLFGDQMDNAKRMETKGAGVTLNVLEMTSEDLENALKAVINDKSYKENIMRLSSLHKDRPVEPLDLAVFWVEFVMRHKGAPHLRPAAHDLTWYQYHSLDVIGFLLAVVLTVAFITFKCCAYGYRKCLGKKGRVKKAHKSKTH
- Km [2, 8]: 44 ± 8.1 µM
- Vmax [2, 8]: 0.00049 µmol/min/mg
